The subject of the first assay is Human primary T cells. Kind of assay: IL-2 ELISA, human primary T cell, anti-CD3+CD28+ (whole cell assay). The format is cell-based. The conditions noted are these: Homo sapiens, T-cell, 24 h, human primary T cells stimulated with anti-CD3 + anti-CD28, 24 hours. Summed up: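 IL-2 secreted over 24 h at 37° C was quantified by ELISA after plate-bound αCD3 (1 μg/ml) and αCD28 (5 μg/ml) stimulation, or PMA (0.5 ng/ml) with ionomycin (0.1 μM) as counter-screen. Cells were IL-2-starved primary human T cells, expanded from volunteer PBMC and exposed to compound for 1 hr beforehand.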
For orientation: An ELISA detects its analyte on a solid surface through an enzyme-linked reagent.
In general, IC50 refers to the point on the concentration scale where inhibition reaches its midpoint. Regarding `CCOc1ncc(Nc2ncc(F)c(NC3CC(C)(C)NC(C)(C)C3)n2)cc1OC(F)F` [Compound I-118, N2-(5-(difluoromethoxy)-6-ethoxypyridin-3-yl)-5-fluoro-N4-(2,2,6,6-tetramethylpiperidin-4-yl)pyrimidine-2,4-diamine], the IC50 lay in the range of 250 to 500 nM.

Take `CN1C(C)(C)CC(Nc2nc(Nc3ccc(OCCN4CCOCC4)c(C(F)(F)F)c3)ncc2F)CC1(C)C` [Compound I-119, N2-(4-(2-morpholinoethoxy)-3-(trifluoromethyl)phenyl)-5-fluoro-N4-(1,2,2,6,6-pentamethylpiperidin-4-yl)pyrimidine-2,4-diamine]: the IC50 is 250 to 500 nM.

Take `CC1(C)CC(Nc2nc(Nc3ccc(OCCN4CCOCC4)c(OC(F)F)c3)ncc2F)CC(C)(C)N1` [Compound I-120, N2-(4-(2-morpholinoethoxy)-3-(difluoromethoxy)phenyl)-5-fluoro-N4-(2,2,6,6-tetramethylpiperidin-4-yl)pyrimidine-2,4-diamine]: the half-inhibitory concentration (IC50) is above 1000 nM.

`CN1C(C)(C)CC(Nc2nc(Nc3ccc(OCCN4CCOCC4)c(OC(F)F)c3)ncc2F)CC1(C)C` [Compound I-121, N2-(4-(2-morpholinoethoxy)-3-(difluoromethoxy)phenyl)-5-fluoro-N4-(1,2,2,6,6-pentamethylpiperidin-4-yl)pyrimidine-2,4-diamine]: the IC50 was 500 to 1000 nM.

In the case of `CC1(C)CC(Nc2nc(Nc3ccc(OC(C)(C)CN4CCOCC4)c(OC(F)F)c3)ncc2F)CC(C)(C)N1` [Compound I-122, N2-(4-(2-methyl-1-morpholinopropan-2-yloxy)-3-(difluoromethoxy)phenyl)-5-fluoro-N4-(2,2,6,6-tetramethylpiperidin-4-yl)pyrimidine-2,4-diamine], the IC50 was above 1000 nM.

Regarding `CN1C(C)(C)CC(Nc2nc(Nc3ccc(OC(C)(C)CN4CCOCC4)c(OC(F)F)c3)ncc2F)CC1(C)C` [Compound I-123, N2-(4-(2-methyl-1-morpholinopropan-2-yloxy)-3-(difluoromethoxy)phenyl)-5-fluoro-N4-(1,2,2,6,6-pentamethylpiperidin-4-yl)pyrimidine-2,4-diamine], the IC50 was below 250 nM.

As to `CC1(C)CC(Nc2nc(Nc3ccc(OC(C)(C)CN4CCCC4)c(OC(F)F)c3)ncc2F)CC(C)(C)N1` [Compound I-124, N2-(4-(2-methyl-1-(pyrrolidin-1-yl)propan-2-yloxy)-3-(difluoromethoxy)phenyl)-5-fluoro-N4-(2,2,6,6-tetramethylpiperidin-4-yl)pyrimidine-2,4-diamine], the IC50 is 500 to 1000 nM.

Consider `CC(C)Oc1ncc(Nc2ncc(F)c(NC3CC(C)(C)N(C)C(C)(C)C3)n2)cc1-c1nnnn1C` [Compound I-126, 5-fluoro-N2-(6-isopropoxy-5-(1-methyl-1H-tetrazol-5-yl)pyridin-3-yl)-N4-(1,2,2,6,6-pentamethylpiperidin-4-yl)pyrimidine-2,4-diamine], for which the IC50 was below 250 nM.

With `CC(C)Oc1ncc(Nc2ncc(F)c(NC3CC(C)(C)NC(C)(C)C3)n2)cc1-c1nnnn1C` [Compound I-127, 5-fluoro-N2-(6-isopropoxy-5-(1-methyl-1H-tetrazol-5-yl)pyridin-3-yl)-N4-(2,2,6,6-tetramethylpiperidin-4-yl)pyrimidine-2,4-diamine], the IC50 was 250 to 500 nM.

Take `CC(C)Oc1ncc(Nc2ncc(C(N)=O)c(NC3CC(C)(C)N(C)C(C)(C)C3)n2)cc1-c1nnnn1C` [Compound I-128, 2-(6-isopropoxy-5-(1-methyl-1H-tetrazol-5-yl)pyridin-3-ylamino)-4-(1,2,2,6,6-pentamethylpiperidin-4-ylamino)pyrimidine-5-carboxamide]: the IC50 was above 1000 nM.

As for `CC(C)Oc1ncc(Nc2ncc(C#N)c(NC3CC(C)(C)N(C)C(C)(C)C3)n2)cc1-c1nnnn1C` [Compound I-129, 2-(6-isopropoxy-5-(1-methyl-1H-tetrazol-5-yl)pyridin-3-ylamino)-4-(1,2,2,6,6-pentamethylpiperidin-4-ylamino)pyrimidine-5-carbonitrile], the IC50 is 500 to 1000 nM.

Take `CC(C)Oc1ncc(Nc2ncc(C#N)c(NC3CC(C)(C)NC(C)(C)C3)n2)cc1-c1nnnn1C` [Compound I-130, 2-(6-isopropoxy-5-(1-methyl-1H-tetrazol-5-yl)pyridin-3-ylamino)-4-(2,2,6,6-tetramethylpiperidin-4-ylamino)pyrimidine-5-carbonitrile]: the IC50 is above 1000 nM.

As for `CC(C)Oc1ncc(Nc2ncc(F)c(NC3CC(C)(C)N(C)C(C)(C)C3)n2)cc1-c1nnnn1C(C)C` [Compound I-131, 5-fluoro-N2-(6-isopropoxy-5-(1-isopropyl-1H-tetrazol-5-yl)pyridin-3-yl)-N4-(1,2,2,6,6-pentamethylpiperidin-4-yl)pyrimidine-2,4-diamine], the IC50 fell in the range of 500 to 1000 nM.

Take `CC(C)Oc1ncc(Nc2ncc(F)c(NC3CC(C)(C)NC(C)(C)C3)n2)cc1-c1nnnn1C(C)C` [Compound I-132, 5-fluoro-N2-(6-isopropoxy-5-(1-isopropyl-1H-tetrazol-5-yl)pyridin-3-yl)-N4-(2,2,6,6-tetramethylpiperidin-4-yl)pyrimidine-2,4-diamine]: the IC50 was in the range of 500 to 1000 nM.

For `CC(C)Oc1ncc(Nc2ncc(C(N)=O)c(NC3CC(C)(C)N(C)C(C)(C)C3)n2)cc1-c1nnnn1C(C)C` [Compound I-133, 2-(6-isopropoxy-5-(1-isopropyl-1H-tetrazol-5-yl)pyridin-3-ylamino)-4-(1,2,2,6,6-pentamethylpiperidin-4-ylamino)pyrimidine-5-carboxamide], the IC50 is 500 to 1000 nM.

For the molecule `CC(C)Oc1ncc(Nc2ncc(C(N)=O)c(NC3CC(C)(C)NC(C)(C)C3)n2)cc1-c1nnnn1C(C)C` [Compound I-134, 2-(6-isopropoxy-5-(1-isopropyl-1H-tetrazol-5-yl)pyridin-3-ylamino)-4-(2,2,6,6-tetramethylpiperidin-4-ylamino)pyrimidine-5-carboxamide], the IC50 was above 1000 nM.

Consider `CC(C)Oc1ncc(Nc2ncc(C#N)c(NC3CC(C)(C)N(C)C(C)(C)C3)n2)cc1-c1nnnn1C(C)C` [Compound I-135, 2-(6-isopropoxy-5-(1-isopropyl-1H-tetrazol-5-yl)pyridin-3-ylamino)-4-(1,2,2,6,6-pentamethylpiperidin-4-ylamino)pyrimidine-5-carbonitrile], for which the IC50 was in the range of 500 to 1000 nM.

On to `CC(C)Oc1ncc(Nc2ncc(C#N)c(NC3CC(C)(C)NC(C)(C)C3)n2)cc1-c1nnnn1C(C)C` [Compound I-136, 2-(6-isopropoxy-5-(1-isopropyl-1H-tetrazol-5-yl)pyridin-3-ylamino)-4-(2,2,6,6-tetramethylpiperidin-4-ylamino)pyrimidine-5-carbonitrile], for which the IC50 was above 1000 nM.

In the case of `CC(C)Oc1ncc(Nc2ncc(F)c(NC3CC(C)(C)N(C)C(C)(C)C3)n2)cc1-c1nnnn1C1CC1` [Compound I-137, N2-(5-(1-cyclopropyl-1H-tetrazol-5-yl)-6-isopropoxypyridin-3-yl)-5-fluoro-N4-(1,2,2,6,6-pentamethylpiperidin-4-yl)pyrimidine-2,4-diamine], the IC50 is below 250 nM.

For the molecule `CC(C)Oc1ncc(Nc2ncc(F)c(NC3CC(C)(C)NC(C)(C)C3)n2)cc1-c1nnnn1C1CC1` [Compound I-138, N2-(5-(1-cyclopropyl-1H-tetrazol-5-yl)-6-isopropoxypyridin-3-yl)-5-fluoro-N4-(2,2,6,6-tetramethylpiperidin-4-yl)pyrimidine-2,4-diamine], the IC50 lay within 500 to 1000 nM.

For the molecule `CC(C)Oc1ncc(Nc2ncc(C#N)c(NC3CC(C)(C)N(C)C(C)(C)C3)n2)cc1-c1nnnn1C1CC1` [Compound I-139, 2-(5-(1-cyclopropyl-1H-tetrazol-5-yl)-6-isopropoxypyridin-3-ylamino)-4-(1,2,2,6,6-pentamethylpiperidin-4-ylamino)pyrimidine-5-carbonitrile], the IC50 was below 250 nM.

For `CC(C)Oc1ncc(Nc2ncc(C#N)c(NC3CC(C)(C)NC(C)(C)C3)n2)cc1-c1nnnn1C1CC1` [Compound I-140, 2-(5-(1-cyclopropyl-1H-tetrazol-5-yl)-6-isopropoxypyridin-3-ylamino)-4-(2,2,6,6-tetramethylpiperidin-4-ylamino)pyrimidine-5-carbonitrile], the IC50 lay within 250 to 500 nM.

As to `CC1(C)CC(Nc2nc(Nc3cnc(OCCN4CCCC4=O)c(OC(F)F)c3)ncc2F)CC(C)(C)N1` [Compound I-141, 1-(2-(3-(difluoromethoxy)-5-(5-fluoro-4-(2,2,6,6-tetramethylpiperidin-4-ylamino)pyrimidin-2-ylamino)pyridin-2-yloxy)ethyl)pyrrolidin-2-one], the IC50 is above 1000 nM.

For `CN1C(C)(C)CC(Nc2nc(Nc3cnc(OCCN4CCCC4)c(OC(F)F)c3)ncc2F)CC1(C)C` [Compound I-142, N2-(5-(difluoromethoxy)-6-(2-(pyrrolidin-1-yl)ethoxy)pyridin-3-yl)-5-fluoro-N4-(1,2,2,6,6-pentamethylpiperidin-4-yl)pyrimidine-2,4-diamine], the IC50 was above 1000 nM.

Take `CC1(C)CC(Nc2nc(Nc3cnc(OCCN4CCCC4)c(OC(F)F)c3)ncc2F)CC(C)(C)N1` [Compound I-143, N2-(5-(difluoromethoxy)-6-(2-(pyrrolidin-1-yl)ethoxy)pyridin-3-yl)-5-fluoro-N4-(2,2,6,6-tetramethylpiperidin-4-yl)pyrimidine-2,4-diamine]: the IC50 is above 1000 nM.

Consider `CC1(C)CC(Nc2nc(Nc3ccc(OC4CCN(CC(F)(F)F)CC4)c(OC(F)F)c3)ncc2F)CC(C)(C)N1` [Compound I-144, N2-(4-(1-(2,2,2-trifluoroethyl)piperidin-4-yloxy)-3-(difluoromethoxy)phenyl)-5-fluoro-N4-(2,2,6,6-tetramethylpiperidin-4-yl)pyrimidine-2,4-diamine], for which the IC50 was in the range of 500 to 1000 nM.

The same assay, now with this note: human primary T cells stimulated with anti-CD3 + anti-CD28, 24 hours.
In the case of `CC1(C)CC(Nc2nc(Nc3ccc(F)c(-n4cnnn4)c3)ncc2C(N)=O)CC(C)(C)N1` [Compound I-125, 5-aminocarbonyl-N2-[4-fluoro-3-(1H-tetrazol-1-yl)]phenyl-N4-(2,2,6,6-tetramethylpiperidin-4-yl)-2,4-pyrimidinediamine], the IC50 is 250 to 500 nM.

These data come from patent publication US9149475B2, “Protein kinase C inhibitors and uses thereof” (Rigel Pharmaceuticals, Inc., priority 2009, dated 2015).
